Paper PMC8208167 (Applied and Environmental Microbiology, 2021)

What was measured:
biuret hydrolase (BiuH) = biuret hydrolase (BiuH) (Herbaspirillum sp. BH-1, UniProt A0A2N6JFV5); assay: ammonia release, Berthelot reaction; assay type: biochemical; conditions: pH […], sodium phosphate; turnover
[1] = tested on: guanylurea hydrolase (GuuH); assay: ammonia release, Berthelot reaction; assay type: biochemical, Ectopseudomonas mendocina; conditions: read-out: Exptl determination; 125 mM sodium phosphate, pH 8.0 (optimum), room temperature

Chain of biuret hydrolase (BiuH) (A0A2N6JFV5 1-231): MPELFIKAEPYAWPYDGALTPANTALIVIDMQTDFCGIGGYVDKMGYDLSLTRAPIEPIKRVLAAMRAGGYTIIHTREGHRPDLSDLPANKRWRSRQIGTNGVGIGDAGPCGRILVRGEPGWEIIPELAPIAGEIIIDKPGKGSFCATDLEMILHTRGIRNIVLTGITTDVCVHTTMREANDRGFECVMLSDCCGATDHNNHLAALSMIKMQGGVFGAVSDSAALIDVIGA

| Compound | activity (biuret hydrolase (BiuH)) | Km [1] [µM] |
| --- | --- | --- |
| NC(=O)NC(N)=O [biuret] | diminished activity with biuret compared to that of the wild type |  |
| N=C(N)NC(N)=O [guanylurea] |  | 16 |
